Assay [1] relates to influenza A and B viruses. It counts as cell-based.
For assay [2], the target named is NA from influenza PR8 virus (Influenza A virus, UniProt P03468). The experiment in a line: biochemical.

Experimental findings from publication PMC2792043 (PLoS ONE, 2009) are described below.

SMILES strings stand for the structures. pIC50: −log10 of the molar value.

NA from influenza PR8 virus, sequence (P03468 whole entry, looked up): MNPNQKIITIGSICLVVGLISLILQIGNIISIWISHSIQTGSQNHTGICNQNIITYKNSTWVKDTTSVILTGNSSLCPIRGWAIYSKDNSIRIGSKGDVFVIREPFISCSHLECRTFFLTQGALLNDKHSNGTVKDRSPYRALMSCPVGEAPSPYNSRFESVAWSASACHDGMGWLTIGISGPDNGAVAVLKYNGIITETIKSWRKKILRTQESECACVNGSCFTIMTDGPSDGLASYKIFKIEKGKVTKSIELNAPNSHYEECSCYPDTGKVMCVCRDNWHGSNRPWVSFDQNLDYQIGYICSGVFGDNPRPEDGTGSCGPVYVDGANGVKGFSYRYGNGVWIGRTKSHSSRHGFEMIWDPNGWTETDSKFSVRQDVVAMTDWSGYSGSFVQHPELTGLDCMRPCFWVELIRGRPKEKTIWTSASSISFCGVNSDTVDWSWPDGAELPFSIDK

A word on the pIC50: it is the IC50 on a negative log10 scale, so that one unit is a factor of ten. A lower pIC50 goes with a large IC50. As for `O=C(O)C1=CC(=C(c2ccc(O)c(C(=O)O)c2)c2ccc(O)c(C(=O)O)c2)C=CC1=O` [ATA, Aurintricarboxylic acid], the “replication after pre-incubation of virus with ATA” value in assay [1] is “inhibited replication of both WSN and H274Y viruses in a dose-responsive fashion”. In addition, in assay [2], the pIC50 is 4.77.
